Measured values taken from PMC6271988, “New Potentially Active Pyrazinamide Derivatives Synthesized Under Microwave Conditions” (Molecules, 2014).

How the values were obtained:
[1] = test system: PET in spinach chloroplasts; assay: Photosynthetic electron transport (PET) inhibition, DCPIP photoreduction; assay type: biochemical, Spinacia oleracea L.; details: for IC50: DCPIP photoreduction
Procedure: The inhibition of photosynthetic electron transport (PET) in spinach chloroplasts was determined spectrophotometrically (Genesys 6, Thermo Scientific, Madison, WI, USA) using an artificial electron acceptor 2,6-dichlorophenol-indophenol (DCPIP). The rate of photosynthetic electron transport was monitored as a photoreduction of DCPIP. Chloroplasts were prepared from Spinacia oleracea L.. The measurements were carried out in phosphate buffer (0.02 mol/L, pH 7.2) containing sucrose (0.4 mol/L), MgCl2 (0.005 mol/L) and NaCl (0.015 mol/L). The chlorophyll concentration was 30 mg/L and the samples were irradiated (~100 W/m^2 with 10 cm distance) with a halogen lamp (250 W). […] The studied compound were dissolved in DMSO due to their limited water solubility. […] The efficiency of studied compounds was expressed as 50% inhibition concentration relative to the untreated control. The standard for these measurements was DCMU (Diurone®).

[2] = Lipophilicity HPLC determination (logk); assay type: physicochemical; details: HPLC capacity factor, C18, MeOH 70%/H2O 30%, 30 °C
Candida tropicalis 156 = assay: Antifungal evaluation, microdilution broth method; assay type: cell-based; details: Candida tropicalis, 156, CT
Procedure: (§1) Antifungal evaluation was also accomplished with microdilution broth method. On the contrary, there was used RPMI 1640 broth with glutamine as medium and conditions were humid and dark atmosphere, pH 7.0 (adjusted with 0.165 M morpholinepropanesulfonic acid, MOPS) and 35 °C. 8 fungal strains were used (Candida albicans ATCC 44859, Candida tropicalis 156, Candida krusei E28, Candida glabrata 20/I, Trichosporon asahii 1188, Aspergillus fumigatus 231, Lichtheimia corymbifera 272, Trichophyton mentagrophytes 445) together with four antimycotic standards amphotericin B, voriconazole, nystatin and fluconazole.

Trichosporon asahii 1188 = assay: Antifungal evaluation, microdilution broth method; assay type: cell-based; details: Trichosporon asahii, 1188, TA
Procedure: as §1

Candida glabrata 20/I = assay: Antifungal evaluation, microdilution broth method; assay type: cell-based; details: Nakaseomyces glabratus, 20/I, CG
Procedure: as §1

[3] = test system: Lichtheimia corymbifera 272; assay: Antifungal evaluation, microdilution broth method; assay type: cell-based; details: Lichtheimia corymbifera, 272, LC
Procedure: as §1

[4] = test system: Candida albicans ATCC 44859; assay: Antifungal evaluation, microdilution broth method; assay type: cell-based; details: Candida albicans, ATCC44859, CA
Procedure: as §1

[5] = test system: Aspergillus fumigatus 231; assay: Antifungal evaluation, microdilution broth method; assay type: cell-based; details: Aspergillus fumigatus, 231, AF
Procedure: as §1

Candida krusei E28 = assay: Antifungal evaluation, microdilution broth method; assay type: cell-based; details: Pichia kudriavzevii, E28, CK
Procedure: as §1

[6] = test system: Trichophyton mentagrophytes 445; assay: Antifungal evaluation, microdilution broth method; assay type: cell-based; details: Trichophyton mentagrophytes, 445, TM
Procedure: as §1

[7] = test system: spectrum of fungi tested (8 fungal strains); assay: Antifungal evaluation, summary over the fungi tested; assay type: cell-based; details: fungi tested, less active than the standards; read-out: IC80 antifungal
Procedure: as §1

[8] = test system: Staphylococcus epidermidis; assay: Antibacterial in vitro screening, microdilution broth method; assay type: cell-based; details: 80% inhibition of control

| Molecule | PET inhibition (result in words) [1] | logk [2] | IC50 [1] [µM] | also measured |
| --- | --- | --- | --- | --- |
| 3-(Piperidin-1-ylamino)pyrazine-2-carboxamide [Compound 15] | did not inhibit PET | −0.2333 |  |  |
| 3-(Pyrrolidin-1-ylamino)pyrazine-2-carboxamide [Compound 14] | did not inhibit PET | −0.4889 |  |  |
| C[C@@H]1[C@H](O)[C@@H](C)/C=C/C=C/C=C/C=C/C=C/C=C/C=C/[C@H](O[C@@H]2O[C@H](C)[C@@H](O)[C@H](N)[C@@H]2O)C[C@@H]2O[C@](O)(C[C@@H](O)C[C@@H](O)[C@H](O)CC[C@@H](O)C[C@@H](O)CC(=O)O[C@H]1C)C[C@H](O)[C@H]2C(=O)O [AMP, amphotericin B] |  |  |  | IC80 (Candida tropicalis 156; 24 h): 1.95 µM; IC80 (Candida tropicalis 156; 48 h): 1.95 µM; IC80 (Trichosporon asahii 1188; 24 h): 0.49 µM; IC80 (Trichosporon asahii 1188; 48 h): 0.98 µM; IC80 (Candida glabrata 20/I; 24 h): 0.98 µM; IC80 (Candida glabrata 20/I; 48 h): 1.95 µM; IC80 ([3]; 24 h): 7.81 µM; IC80 ([3]; 48 h): 7.81 µM; IC80 ([4]; 24 h): 0.12 µM; IC80 ([4]; 48 h): 0.49 µM; IC80 ([5]; 24 h): 1.95 µM; IC80 ([5]; 48 h): 1.95 µM; IC80 (Candida krusei E28; 24 h): 1.95 µM; IC80 (Candida krusei E28; 48 h): 1.95 µM; IC80 ([6]; 72 h): 1.95 µM; IC80 ([6]; 120 h): 1.95 µM |
| CNc1nccnc1C(N)=O [Compound 1, 3-(Methylamino)pyrazine-2-carboxamide] | did not inhibit PET | −0.4028 |  |  |
| CCNc1nccnc1C(N)=O [Compound 2, 3-(Ethylamino)pyrazine-2-carboxamide] | did not inhibit PET | −0.2014 |  |  |
| CCCNc1nccnc1C(N)=O [Compound 3, 3-(Propylamino)pyrazine-2-carboxamide] |  | 0.0038 | 1590 |  |
| CCCCNc1nccnc1C(N)=O [Compound 4, 3-(Butylamino)pyrazine-2-carboxamide] |  | 0.2287 | 203 | IC80 [7]: ≥ 250 µM |
| CCCCCNc1nccnc1C(N)=O [Compound 5, 3-(Pentylamino)pyrazine-2-carboxamide] |  | 0.4563 | 38.6 | IC80 [8]: < 250 µM; IC80 [7]: ≥ 250 µM |
| CCC(C)(C)Nc1nccnc1C(N)=O [Compound 6, 3-(tert-Pentylamino)pyrazine-2-carboxamide] |  | 0.5468 | 480 |  |
| CCCCCCCNc1nccnc1C(N)=O [Compound 8, 3-(Heptylamino)pyrazine-2-carboxamide] |  | 0.9198 |  | IC80 [7]: ≥ 250 µM |
| CCCCCCCCNc1nccnc1C(N)=O [Compound 9, 3-(Octylamino)pyrazine-2-carboxamide] |  | 1.1533 | 14.3 |  |
| CCCCN(CCCC)c1nccnc1C(N)=O [Compound 10, 3-(Dibutylamino)pyrazine-2-carboxamide] | did not inhibit PET | 0.5197 |  |  |
